Values quoted from earlier work, collected in patent publication US11559045B2, “Synergistic mixture for inducing hygienic behavior in honey bees, and related compositions and methods” (University of North Carolina at Greensboro, priority 2019, dated 2023).

Tested on: honey bees
Settings: previously shown (US 2018/0177160; Nazzi et al. 2004)

Row | SMILES | induction of hygienic behavior in honey bees
1 | CCCCC/C=C\CCCCCCCC [Compound (IV), (Z)-6-pentadecene] | induce hygienic behavior
2 | CCCCCCCCC/C=C\CCCCCCCCCCCCCCCCCCCCCC [Compound (I), (Z)-10-tritriacontene] | induce hygienic behavior
